Experimental data taken from US11401278B2, “Macrocyclic indole derivatives” (The Broad Institute, Inc., priority 2017, dated 2022).
“And” between values parts separate entries of the source, which are not always exact repeats. Equal values may be shown once. Where a name gives a salt, the structure may show the parent alone. Read-outs that look alike come from different tables or passages of the source. Each block holds one compound with its values, some of them ahead of it.

Legend:
[1] = test system: A2780; test: Antiproliferation assay (Assay 7), A2780; type: cell-based; settings: CellTiter-Glo, several values per example
Protocol: Assessment of the Anti-Proliferative Effect of Compounds in Different Cell Lines
The impact of compounds on the proliferation of different cell lines was assessed using the CellTiter-Glo® Luminescent Cell Viability reagent from Promega (G7573).
In parallel, cells were plated in a reference (day 0) plate for time zero determination.
Rim wells were excluded. The cells were incubated for 72 hours in a humidified incubator at 37° C. The day 0 plate was measured by adding 30 μL/well of CTG solution (CellTiter-Glo® Luminescent Cell Viability reagent, Promega G7573) to time zero wells in the reference plate followed by a 10 minutes incubation and luminescence reading at 0.1 ms. using the PHERAstar FS microplate reader (BMG Labtech).
After 72 hours incubation, the treated plates were measured in the same way as the day 0 plate mentioned above.

[2] = molecular target: MCL-1 (Homo sapiens (Human), UniProt Q07820, K194A/K197A/R201A); test: Protein-compound interaction assay (SPR assay, Assay 8); type: binding; settings: immobilized MBP-MCL-1, 25° C., geometric mean
Text: Assay 8 Protein-Compound Interaction Assay (SPR Assay)
The ability of the compounds described in this invention to bind to MCL-1 may be determined using surface plasmon resonance (SPR). This allows for the quantification of binding in terms of the equilibrium dissociation constant (KD [M]), as well as association and dissociation rate constants (kon [1/M 1/s] and koff [1/s], respectively). The measurements may be performed using Biacore® T200 or Biacore® S200 instruments (GE Healthcare).
For SPR measurements, recombinant MCL-1 (amino acids 173-321, N-terminal fused to Maltose Binding Protein (MBP) (SEQ ID 1) purchased from Beryllium (Bedford, Mass., USA)) was immobilized using standard amine coupling (Johnsson B et al, Anal Biochem. 1991 Nov. 1; 198(2):268-77). Briefly, carboxymethylated dextran biosensor chips (Series S Sensor Chip CMS, GE Healthcare) were activated with 1-ethyl-3-(3-dimethylaminopropyl)-carbodiimide hydrochloride (EDC) and N-hydroxysuccinimide (NHS) according to the supplier's instructions. MBP-MCL-1 was diluted in 1×PBS-P+ (GE Healthcare) and injected on the activated chip surface. Subsequently, a solution of 1 M ethanolamine-HCl (GE Healthcare) was injected to block unreacted groups, resulting in approximately 400-2500 response units (RU) of immobilized protein. A reference surface was generated by treatment with NHS-EDC and ethanolamine-HCl. Compounds were dissolved in 100% dimethylsulfoxide (DMSO) to a concentration of 10 mM and subsequently diluted in running buffer (1×PBS-P+ (GE Healthcare) [generated from PBS-P+ Buffer 10× (GE Healthcare): 0.2 M phosphate buffer with 27 mM KCl, 1.37 M NaCl and 0.5% Surfactant P20 (Tween 20).], 1% v/v DMSO). For SPR binding-measurements, serial dilutions of compound (eight dilution steps, typically ranging from 0.2 nM up to 1 μM) were injected over immobilized protein. […] Compounds were injected for 60 s followed by a dissociation time of up to 1000 s.
The double-referenced sensorgrams were fit to a simple reversible Langmuir 1:1 reaction mechanism as implemented in the Biacore® T200 and S200 evaluation software (T200 evaluation software version 2.0 and S200 evaluation software version 1.0, GE Healthcare).

[3] = molecular target: MCL1 protein (Homo sapiens (Human), UniProt Q07820); test: PIxEL: protein-protein interaction in permeabilized cells by ELISA (Assay 5); type: cell-based; settings: permeabilized RKO cells, Biotin-BIM peptide 0.2 μM, serum free; median
Protocol: PI×EL: Protein-Protein Interaction in Permeabilized Cells by ELISA
Most MCL1 protein molecules are localized at the mitochondria outer membrane and sequester pro-apoptotic proteins through binding of their BCL2 homology domain 3 (BH3 domain). MEB buffer (150 mM mannitol, 10 mM HEPES pH 7.5, 50 mM KCl, 20 μM EDTA, 20 μM EGTA, 5 mM potassium succinate, 0.1% protease-free BSA (SIGMA) with low dose digitonin (0.002%) permeabilizes plasma membrane while leaves live mitochondria, where MCL1 maintains its native localization and conformation. Unlike biophysical assays (e.g. TR-FRET) that use truncated recombinant MCL1 protein, this assay uses full length endogenous MCL1 protein at mitochondria outer membrane. It measures the interaction between MCL1 protein and biotinylated BIM BH3 peptide. Compounds can compete with BIM BH3 peptide to bind to MCL1 protein. This serum free assay measures the affinity between MCL1 protein and compound in permeabilized cells, therefore it is not affected by serum binding and cell permeability, and can measure the intrinsic compound affinity.
On day 1, RKO colon cancer cell line cells were plated at 0.8 million cells/ml, 100 μl/well in 96-well flat bottom TC plates (Corning). MCL1 antibody (Santa Cruz sc-12756) were diluted at 200 fold (final concentration 1 μg/ml) in carbonate buffer (Thermo Fisher Scientific, pH 9.6), and 50 μl of diluted antibody was added to each well of high bind ELISA plates (SARSTEDT). Each plate was tapped to make sure liquid covering entire bottom of wells and incubate at 37° C. overnight.
On the second day, MCL1 antibody was washed from ELISA plate. 250 μl Odyssey® Blocking Buffer (PBS) (Li-Cor) was added to each well, incubated at room temperature for at least 1 hour, then washed once with 250 μl 1×PBST. Plates with RKO cells were gently washed once with 100 μl/well PBS, once with 100 μl/well MEB buffer without digitonin, then 100 μl of MEB buffer with 0.002% digitonin was gently added to each well. Compounds were added with HP Tecan compound dispenser in 3-fold dilution series, highest dose 30 μM, 10-dose per compound in quadruplicates. Biotin-BIM peptide (synthesized by 21st Century) was added with HP Tecan compound dispenser at 0.2 μM immediately after the addition of compounds. Plates were rocked for 1 hour at room temperature. Then MEB buffer was aspirated and 50 μl of CHAPS buffer (50 mM Tris-Cl, pH 7.4, 150 mM NaCl, 1% CHAPS, 1 mM EDTA, 1 mM EGTA, cOmplete protease inhibitors (Roche), PhosSTOP (Roche)) was added to each well. Plates were rocked for 1 hour at 4° C., then 45 μl cell lysate from each well were transferred to ELISA plates coated with MCL1 antibody. Plates were incubated overnight in the cold room with rocking.
On the third day, ELISA plates were washed once with 250 μl 1×PBST. Streptavidin-poly-HRP (Thermo Fisher Scientific) was diluted to 20 ng/ml in Odyssey blocking buffer plus 0.05% Triton-100, and 100 μl was added to each well of the ELISA plate. Plates were incubated at room temperature for 1 hour with rocking, then washed with 100 μL 1×PBST for 3 times. Each SuperSignal ELISA Femto Maximum Sensitivity substrate was added to a 50-ml tube and mixed, then 100 μl of mixed substrate was added to each well. Plates were shaken for 1 minute then luminescence was measured by Envision plate reader […]. Signal of each well were normalized by no-compound control and no-cell control. IC50 was calculated using Graphic Pad PRISM software.

MCL-1, sequence (Q07820 whole entry K194A/K197A/R201A, looked up): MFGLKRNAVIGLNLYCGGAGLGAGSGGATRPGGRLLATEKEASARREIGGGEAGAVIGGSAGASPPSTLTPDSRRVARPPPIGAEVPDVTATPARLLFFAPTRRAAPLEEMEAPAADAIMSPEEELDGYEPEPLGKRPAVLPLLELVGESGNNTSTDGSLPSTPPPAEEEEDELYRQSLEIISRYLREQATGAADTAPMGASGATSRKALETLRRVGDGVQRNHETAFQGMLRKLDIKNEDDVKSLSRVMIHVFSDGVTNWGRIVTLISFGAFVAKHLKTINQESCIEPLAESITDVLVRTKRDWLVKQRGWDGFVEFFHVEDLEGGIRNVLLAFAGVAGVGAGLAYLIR
MCL1 protein, sequence (Q07820 whole entry): as the sequence (Q07820 whole entry K194A/K197A/R201A, looked up) above, with A194K, A197K, A201R counted along it

IC50 ([1]; 72 hours, listed as 04, read-out: Antiproli A2780 [M] IC50): 1.66e-05 M
IC50 ([1]; Homo sapiens, A2780, 72 h, read-out: Antiproli A2780 [M] IC50): 1.22e-05 M
Structure (SMILES): Cc1c2c(nn1C)CN(C)S(=O)(=O)CCCn1c(C(=O)O)c(CCCOc3cccc4ccccc34)c3ccc(Cl)c-2c31 (racemic) [Example 4, (rac)-4-Chloro-2,3,14-trimethyl-7-{3-[(naphthalen-1-yl)oxy]propyl}-13,13-dioxo-10,11,12,13,14,15-hexahydro-2H-13λ^6-pyrazolo[3′,4′:4,5][1,2,8]thiadiazacycloundecino-[6,7,8-hi]indole-8-carboxylic acid]

Kd [2]: 0.0024 µM
koff ([2]; read-out: koff): 0.0079 s⁻¹
kon ([2]; read-out: kon): 3.2e+06 M⁻¹ s⁻¹
IC50 ([1]; 72 hours, listed as 05, read-out: Antiproli A2780 [M] IC50): 9.33e-06 M and 1.13e-05 M
IC50 [3]: 0.57 µM
Structure (SMILES): Cc1c2c(nn1C)CN(C)S(=O)(=O)CCCn1c(C(=O)O)c(CCCOc3cccc4ccccc34)c3ccc(Cl)c-2c31 (single isomer, unassigned; enantiomer 1) [Example 5, 4-Chloro-2,3,14-trimethyl-7-{3-[(naphthalen-1-yl)oxy]propyl}-13,13-dioxo-10,11,12,13,14,15-hexahydro-2H-13λ^6-pyrazolo[3′,4′:4,5][1,2,8]thiadiazacycloundecino[6,7,8-hi]indole-8-carboxylic acid-N-ethylethanamine salt (Enantiomer 1)]

IC50 ([1]; 72 hours, listed as 03, read-out: Antiproli A2780 [M] IC50): 2.11e-05 M
Structure (SMILES): Cc1c2c(nn1C)CN(CCN1CCOCC1)S(=O)(=O)CCCn1c(C(=O)O)c(CCCOc3cccc4ccccc34)c3cccc-2c31 (single isomer, unassigned; enantiomer 2) [Example 3, 2,3-Dimethyl-14-[2-(morpholin-4-yl)ethyl]-7-{3-[(naphthalen-1-yl)oxy]propyl}-13,13-dioxo-10,11,12,13,14,15-hexahydro-2H-13λ^6-pyrazolo[3′,4′:4,5][1,2,8]thiadiazacycloundecino-[6,7,8-hi]indole-8-carboxylic acid-N-ethylethanamine salt (Enantiomer 2)]

IC50 ([1]; 72 hours, listed as 06, read-out: Antiproli A2780 [M] IC50): 1.19e-05 M
Structure (SMILES): Cc1c2c(nn1C)CN(C)S(=O)(=O)CCCn1c(C(=O)O)c(CCCOc3cccc4ccccc34)c3ccc(Cl)c-2c31 (single isomer, unassigned; enantiomer 2) [Example 6, 4-Chloro-2,3,14-trimethyl-7-{3-[(naphthalen-1-yl)oxy]propyl}-13,13-dioxo-10,11,12,13,14,15-hexahydro-2H-13λ^6-pyrazolo[3′,4′:4,5][1,2,8]thiadiazacycloundecino[6,7,8-hi]indole-8-carboxylic acid-N-ethylethanamine salt (Enantiomer 2)]
